According to US20160159805A1, “Heterocyclic sulfonylamino(thio)carbonyl-derivatives with nematicidal properties” (BAYER CROPSCIENCE AG, priority 2013, published 2016):

Tested on: Meloidogyne incognita
Test: Meloidogyne incognita test (MELGIN), sand, gall formation on salad seedlings after 14 days
Type: in vivo
Conditions: application rate 20 ppm, 100% = no galls, 0% = galls equal to untreated control
Protocol: 1. Meloidogyne incognita—test (MELGIN) [table] To produce a suitable preparation of active compound, 1 part by weight of active compound is mixed with the stated amount of solvent, and the concentrate is diluted with water to the desired concentration. Vessels are filled with sand, a solution of the active ingredient, a suspension containing eggs and larvae of the southern root-knot nematode (Meloidogyne incognita) and salad seeds. The salad seeds germinate and the seedlings grow. Galls develop in the roots. After 14 days the nematicidal activity is determined on the basis of the percentage of gall formation. 100% means no galls were found; 0% means the number of galls found on the roots of the treated plants was equal to that in untreated control plants.

`N#Cc1cnn(Cc2ccc(Cl)c(S(=O)(=O)NC(=O)c3cn4cc(C(F)(F)F)cc(Cl)c4n3)c2)c1` [Ia-14, 8-chloro-N-({2-chloro-5-[(4-cyano-1H-pyrazol-1-yl)methyl]phenyl}sulfonyl)-6-(trifluoromethyl)imidazo[1,2-a]pyridine-2-carboxamide] was tested, and the “nematicidal activity on the basis of the percentage of gall formation” value was 100%.
